Measured values: ChEMBL document CHEMBL3727350, “Agents and methods for treating ischemic and other diseases” (2014)
Activity calls are given as the source filed them.

Legend:
[1] = biological target: Transient receptor potential cation channel subfamily M member 7 (Rattus norvegicus) (UniProt Q925B3); test: Inhibition of TRPM7 in rat H9c2 cells assessed as protection against oxygen glucose deprivation-induced cell death at 0.05 to 5 uM in presence of 1 uM nifedipine; type: cell-based
[2] = tested on: Rattus norvegicus; test: Analgesic activity in iv dosed rat model of formalin-induced inflammatory pain assessed reduction in formalin-induced phase-2 pain flinches; type: functional, organism-based
[3] = biological target: Transient receptor potential cation channel subfamily M member 7 (Rattus norvegicus) (UniProt Q925B3); test: Inhibition of TRPM7 in cultured rat retinal ganglion cells exposed to oxygen glucose deprivation condition for 3 hrs assessed as protection against TRPM7-mediated cell death at by propidium iodide uptake assay; set-up: scale not given: the % may be the effect or the level left
[4] = biological target: Transient receptor potential cation channel subfamily V member 1 (Homo sapiens) (UniProt Q8NER1); test: Inhibition of TRPV1 (unknown origin) expressed in HEK293 cells assessed as effect on agonist-induced Ca2+ changes; type: functional, cell-based
Chain of Transient receptor potential cation channel subfamily V member 1 (Homo sapiens) (Q8NER1 whole entry): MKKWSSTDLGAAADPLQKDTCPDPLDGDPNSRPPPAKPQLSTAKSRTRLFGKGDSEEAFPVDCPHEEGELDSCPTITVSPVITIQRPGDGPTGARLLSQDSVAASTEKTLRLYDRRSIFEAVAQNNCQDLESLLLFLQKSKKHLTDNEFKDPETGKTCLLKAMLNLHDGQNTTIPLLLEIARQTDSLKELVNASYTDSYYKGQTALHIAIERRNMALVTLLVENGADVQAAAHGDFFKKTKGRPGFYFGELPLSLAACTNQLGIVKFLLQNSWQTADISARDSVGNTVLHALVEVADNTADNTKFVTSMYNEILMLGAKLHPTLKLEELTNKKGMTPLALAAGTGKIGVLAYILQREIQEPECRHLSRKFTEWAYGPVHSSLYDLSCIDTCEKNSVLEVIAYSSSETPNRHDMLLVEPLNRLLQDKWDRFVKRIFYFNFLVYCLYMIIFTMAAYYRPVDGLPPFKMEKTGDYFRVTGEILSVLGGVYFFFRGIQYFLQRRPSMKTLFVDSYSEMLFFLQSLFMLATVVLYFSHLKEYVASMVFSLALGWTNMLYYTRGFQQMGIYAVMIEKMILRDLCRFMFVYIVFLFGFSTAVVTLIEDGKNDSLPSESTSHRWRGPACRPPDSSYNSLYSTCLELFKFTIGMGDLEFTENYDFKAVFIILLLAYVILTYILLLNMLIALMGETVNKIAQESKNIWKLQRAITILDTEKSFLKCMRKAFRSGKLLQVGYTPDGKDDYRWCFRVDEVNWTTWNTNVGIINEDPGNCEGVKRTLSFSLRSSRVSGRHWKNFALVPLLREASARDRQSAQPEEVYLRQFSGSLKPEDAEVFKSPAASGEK

[5] = biological target: Transient receptor potential cation channel subfamily M member 7 (Mus musculus) (UniProt Q923J1); test: Inhibition of TRPM7 in mouse mouse primary cortical neurons exposed to 2 hrs oxygen glucose deprivation condition assessed as reduction in TRPM7-mediated anoxic cell death measured after 20 hrs by propidium iodide uptake assay; type: cell-based; details: Cerebral cortex neuron
Chain of Transient receptor potential cation channel subfamily M member 7 (Mus musculus) (Q923J1 whole entry): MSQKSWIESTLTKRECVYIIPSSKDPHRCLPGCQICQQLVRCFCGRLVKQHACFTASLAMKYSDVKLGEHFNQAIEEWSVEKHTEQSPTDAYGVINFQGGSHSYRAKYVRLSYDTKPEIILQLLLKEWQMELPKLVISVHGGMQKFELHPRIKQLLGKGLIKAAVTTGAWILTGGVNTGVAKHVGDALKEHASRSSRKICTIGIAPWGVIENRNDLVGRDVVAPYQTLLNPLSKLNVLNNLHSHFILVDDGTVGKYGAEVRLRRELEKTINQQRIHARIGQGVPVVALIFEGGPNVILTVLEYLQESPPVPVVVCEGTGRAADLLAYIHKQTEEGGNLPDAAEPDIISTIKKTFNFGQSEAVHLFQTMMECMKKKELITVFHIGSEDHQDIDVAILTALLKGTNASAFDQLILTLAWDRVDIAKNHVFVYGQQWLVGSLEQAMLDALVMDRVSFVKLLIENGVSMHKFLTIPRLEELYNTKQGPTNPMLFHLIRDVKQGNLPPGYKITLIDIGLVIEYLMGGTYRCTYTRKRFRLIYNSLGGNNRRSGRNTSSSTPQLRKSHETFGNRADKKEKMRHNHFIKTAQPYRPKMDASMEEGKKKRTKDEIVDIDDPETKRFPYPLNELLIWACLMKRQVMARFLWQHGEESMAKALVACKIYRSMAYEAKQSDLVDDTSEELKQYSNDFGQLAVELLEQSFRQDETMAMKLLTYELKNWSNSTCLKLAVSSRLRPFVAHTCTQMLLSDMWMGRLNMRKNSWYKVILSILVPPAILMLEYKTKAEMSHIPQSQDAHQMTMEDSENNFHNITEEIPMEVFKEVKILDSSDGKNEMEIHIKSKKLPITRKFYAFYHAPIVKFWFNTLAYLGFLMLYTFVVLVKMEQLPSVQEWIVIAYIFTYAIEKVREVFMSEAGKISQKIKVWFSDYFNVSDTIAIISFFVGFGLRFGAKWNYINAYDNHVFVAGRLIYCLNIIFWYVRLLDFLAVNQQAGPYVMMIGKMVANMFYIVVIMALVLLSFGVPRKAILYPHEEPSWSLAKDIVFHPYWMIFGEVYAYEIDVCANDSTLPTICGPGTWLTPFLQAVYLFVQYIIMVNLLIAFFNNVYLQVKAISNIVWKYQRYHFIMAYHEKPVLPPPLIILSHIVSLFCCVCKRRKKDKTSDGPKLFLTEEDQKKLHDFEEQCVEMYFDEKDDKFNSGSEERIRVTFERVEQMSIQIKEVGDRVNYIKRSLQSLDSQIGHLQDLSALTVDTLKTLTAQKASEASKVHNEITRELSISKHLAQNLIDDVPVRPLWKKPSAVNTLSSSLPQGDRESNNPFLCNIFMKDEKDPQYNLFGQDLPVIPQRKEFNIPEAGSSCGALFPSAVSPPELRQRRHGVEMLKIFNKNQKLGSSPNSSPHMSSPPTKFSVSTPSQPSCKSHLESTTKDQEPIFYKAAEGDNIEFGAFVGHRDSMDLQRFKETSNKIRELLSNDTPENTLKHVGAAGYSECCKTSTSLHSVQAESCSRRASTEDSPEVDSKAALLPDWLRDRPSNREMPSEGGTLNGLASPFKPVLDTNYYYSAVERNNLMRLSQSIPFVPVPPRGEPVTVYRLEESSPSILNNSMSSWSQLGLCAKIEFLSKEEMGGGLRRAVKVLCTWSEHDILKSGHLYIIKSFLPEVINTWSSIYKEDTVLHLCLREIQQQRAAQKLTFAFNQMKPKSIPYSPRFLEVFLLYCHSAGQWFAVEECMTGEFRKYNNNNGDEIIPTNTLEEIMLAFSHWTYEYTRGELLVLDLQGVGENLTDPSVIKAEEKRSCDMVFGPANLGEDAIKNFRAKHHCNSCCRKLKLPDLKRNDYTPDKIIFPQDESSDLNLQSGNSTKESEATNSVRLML

[6] = species: Rattus norvegicus; test: Reduction in retinal cell death in rat model of acute glaucoma assessed as reduction in TUNEL positive cells after exposure to 1 hr high IOP at 1 uM; type: functional, organism-based
[7] = tested on: Mus musculus; test: Reduction in infarct volume in mouse model of permanent LAD coronary artery ligation at 10 to 335 ug/kg, iv administered as single dose within 15 mins of LAD occlusion by TTC staining based method; type: functional, organism-based
[8] = biological target: Transient receptor potential cation channel subfamily M member 7 (Rattus norvegicus) (UniProt Q925B3); test: Inhibition of TRPM7 in Sprague-Dawley rat retinal explants dissociated and subjected to 1 hr oxygen-glucose deprivation assessed as reduction in retinal cell death at 1 and 5 uM
[9] = biological target: Transient receptor potential cation channel subfamily M member 7 (Mus musculus) (UniProt Q923J1); test: Inhibition of TRPM7 in mouse AML12 cells assessed as protection against oxygen glucose deprivation-induced cell death at 0.5 to 5 uM; type: cell-based
[10] = biological target: Transient receptor potential cation channel subfamily M member 7 (Rattus norvegicus) (UniProt Q925B3); test: Inhibition of TRPM7 in rat H9C2 cells exposed to 6 hrs oxygen glucose deprivation condition followed by 2 hrs recovery assessed as reduction in TRPM7-mediated anoxic cell death at 0.05 to 5 uM by propidium iodide uptake assay; type: cell-based
[11] = tested on: Mus musculus; test: Toxicity in mouse up to 150 uM, iv; type: organism-based; details: in vivo
[12] = species: Mus musculus; test: Inhibition of sodium channel in mouse cortical neurons assessed as effect on Na+ currents
[13] = tested on: Rattus norvegicus; test: Analgesic activity in iv dosed rat model of formalin-induced inflammatory pain assessed reduction in formalin-induced phase-1 pain flinches; type: functional, organism-based
[14] = Inhibition of cell proliferation of human WERI cells at 10 uM incubated for 48 to 96 hrs; type: functional
[15] = biological target: Transient receptor potential cation channel subfamily M member 7 (Rattus norvegicus) (UniProt Q925B3); test: Inhibition of TRPM7 in rat H9c2 cells assessed as protection against oxygen glucose deprivation-induced cell death at 0.05 to 5 uM; type: cell-based
[16] = biological target: Glutamate NMDA receptor (Mus musculus) (UniProt P35436+Q91ZU9+Q03391+P35438+Q01097+Q01098+A2AIR5); test: Inhibition of NMDA receptor in mouse cortical neurons assessed as effect on NMDA currents; type: protein-complex assay
[17] = species: Mus musculus; test: Inhibition of potassium channel in mouse cortical neurons assessed as reduction in potassium currents at -10mV membrane potential
[18] = biological target: Protein XNDC1N (Homo sapiens) (UniProt Q6ZNB5); test: Inhibition of TRPC2 (unknown origin) expressed in HEK293 cells assessed as effect on agonist-induced Ca2+ changes; type: functional, cell-based
Chain of Protein XNDC1N (Homo sapiens) (Q6ZNB5 whole entry): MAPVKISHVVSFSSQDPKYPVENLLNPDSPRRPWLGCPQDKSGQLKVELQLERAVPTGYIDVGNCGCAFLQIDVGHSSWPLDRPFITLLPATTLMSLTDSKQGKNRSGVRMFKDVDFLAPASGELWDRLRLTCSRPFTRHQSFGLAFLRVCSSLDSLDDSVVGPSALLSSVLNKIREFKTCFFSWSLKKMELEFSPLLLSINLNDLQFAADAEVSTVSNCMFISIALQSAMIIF

[19] = biological target: Transient receptor potential cation channel subfamily M member 7 (Mus musculus) (UniProt Q923J1); test: Inhibition of TRPM7 in mouse primary neuronal cells exposed to oxygen glucose deprivation condition for 1 to 3 hrs assessed as reduction in TRPM7-mediated anoxic cell death dosed after oxygen glucose deprivation condition by propidium iodide uptake assay; details: Primary neuron
[20] = biological target: Transient receptor potential cation channel subfamily M member 7 (Rattus norvegicus) (UniProt Q925B3); test: Inhibition of TRPM7 in rat H9c2 cells assessed as protection against oxygen glucose deprivation-induced cell death at 0.05 to 5 uM pre-treated for 24 hrs before OGD; type: cell-based
[21] = biological target: Transient receptor potential cation channel subfamily M member 7 (Mus musculus) (UniProt Q923J1); test: Inhibition of Tet-induced Flag-tagged mouse TRPM7 expressed in HEK293 cells assessed as reduction in channel currents at 0.3 to 30 uM by whole cell patch clamp assay; type: cell-based
[22] = species: Mus musculus; test: Inhibition of calcium channel in mouse cortical neurons assessed as effect on Ca2+ currents; type: functional
[23] = biological target: Transient receptor potential cation channel subfamily M member 7 (Mus musculus) (UniProt Q923J1); test: Inhibition of Tet-induced Flag-tagged mouse TRPM7 expressed in HEK293 cells assessed as reduction in channel currents at 2 mM using compound applied extracellularly by whole cell patch clamp assay; type: cell-based
[24] = biological target: Transient receptor potential cation channel subfamily M member 2 (Homo sapiens) (UniProt O94759); test: Inhibition of TRPM2 (unknown origin) expressed in HEK293 cells assessed as effect on agonist-induced Ca2+ changes; type: functional, cell-based
[25] = biological target: Transient receptor potential cation channel subfamily M member 7 (Rattus norvegicus) (UniProt Q925B3); test: Inhibition of TRPM7 in rat H9c2 cells assessed as protection against oxygen glucose deprivation-induced cell death at 0.05 to 5 uM applied during OGD; type: cell-based
[26] = biological target: Transient receptor potential cation channel subfamily M member 7 (Rattus norvegicus) (UniProt Q925B3); test: Inhibition of TRPM7 in rat H9C2 cells exposed to oxygen glucose deprivation condition for 1 to 6 hrs assessed as reduction in TRPM7-mediated anoxic cell death in presence of 1 uM nifedipine by propidium iodide uptake assay; type: cell-based
[27] = biological target: Transient receptor potential cation channel subfamily A member 1 (Homo sapiens) (UniProt O75762); test: Inhibition of TRPA1 ((unknown origin) expressed in HEK293 cells assessed as effect on agonist-induced Ca2+ changes; type: functional, cell-based
[28] = biological target: Transient receptor potential cation channel subfamily M member 7 (Mus musculus) (UniProt Q923J1); test: Inhibition of Tet-induced Flag-tagged mouse TRPM7 expressed in HEK293 cells assessed as reduction in channel currents at 2 mM using compound applied intracellularly by whole cell patch clamp assay; type: cell-based
[29] = biological target: Transient receptor potential cation channel subfamily M member 7 (Rattus norvegicus) (UniProt Q925B3); test: Inhibition of TRPM7 in Sprague-Dawley rat retinal explants subjected to 1 hr oxygen-glucose deprivation assessed as reduction in retinal ischemia at 5 uM
[30] = biological target: Transient receptor potential cation channel subfamily M member 7 (Rattus norvegicus) (UniProt Q925B3); test: Inhibition of TRPM7 in rat H9c2 cells assessed as protection against oxygen glucose deprivation-induced cell death at 0.05 to 5 uM pre-treated for 24 hrs before OGD in presence of 1 uM nifedipine; type: cell-based
[31] = biological target: Transient receptor potential cation channel subfamily M member 7 (Mus musculus) (UniProt Q923J1); test: Inhibition of TRPM7 in mouse primary neuronal cells exposed to oxygen glucose deprivation condition for 1 to 3 hrs assessed as reduction in TRPM7-mediated anoxic cell death dosed before oxygen glucose deprivation condition by propidium iodide uptake assay; details: Primary neuron
[32] = tested on: Mus musculus; test: Reduction in dead cells following LAD restriction of heart in mouse model of permanent LAD coronary artery ligation at 10 to 100 ug/kg, iv administered as single dose within 15 mins of LAD occlusion by TUNEL assay; type: functional, organism-based
[33] = biological target: Transient receptor potential cation channel subfamily M member 4 (Homo sapiens) (UniProt Q8TD43); test: Inhibition of TRPM4 (unknown origin) expressed in HEK293 cells assessed as effect on agonist-induced Ca2+ changes; type: functional, cell-based
[34] = biological target: Transient receptor potential cation channel subfamily M member 7 (Mus musculus) (UniProt Q923J1); test: Inhibition of Tet-induced Flag-tagged mouse TRPM7 expressed in HEK293 cells assessed as inhibition of channel-mediated cell death in presence of Mg2+ incubated for 24 to 48 hrs by propidium iodide uptake assay; type: cell-based; set-up: concentration or dose not given beside the values
[35] = tested on: Mus musculus; test: Reduction in damage to heart in mouse model of myocardial infarction at 10 to 35 ug/kg; type: functional, organism-based
[36] = biological target: Transient receptor potential cation channel subfamily M member 7 (Rattus norvegicus) (UniProt Q925B3); test: Inhibition of TRPM7 in rat retinal explants exposed to oxygen glucose deprivation condition for 1 hr assessed as protection against TRPM7-mediated cell death at by propidium iodide uptake assay
[37] = biological target: Transient receptor potential cation channel subfamily M member 7 (Mus musculus) (UniProt Q923J1); test: Inhibition of TRPM7 in mouse mouse primary cortical neurons exposed to 1 hrs oxygen glucose deprivation condition assessed as reduction in TRPM7-mediated anoxic cell death at 1.25 to 10 uM measured after 20 hrs by propidium iodide uptake assay; type: cell-based; details: Cerebral cortex neuron
[38] = biological target: Glutamate receptor ionotropic, AMPA (Mus musculus) (UniProt P23819+P23818+Q9Z2W8+Q9Z2W9); test: Inhibition of AMPA receptor in mouse cortical neurons assessed as effect on AMPA currents; type: protein-complex assay
[39] = biological target: Transient receptor potential cation channel subfamily M member 7 (Rattus norvegicus) (UniProt Q925B3); test: Inhibition of TRPM7 in rat H9C2 cells assessed as reduction in channel currents at 0.3 to 30 uM by whole cell patch clamp assay; type: cell-based
[40] = biological target: Transient receptor potential cation channel subfamily M member 6 (Homo sapiens) (UniProt Q9BX84); test: Inhibition of TRPM6 (unknown origin) expressed in HEK293 cells assessed as effect on agonist-induced Ca2+ changes; type: functional, cell-based

Chain of Transient receptor potential cation channel subfamily M member 7 (Rattus norvegicus) (Q925B3 whole entry): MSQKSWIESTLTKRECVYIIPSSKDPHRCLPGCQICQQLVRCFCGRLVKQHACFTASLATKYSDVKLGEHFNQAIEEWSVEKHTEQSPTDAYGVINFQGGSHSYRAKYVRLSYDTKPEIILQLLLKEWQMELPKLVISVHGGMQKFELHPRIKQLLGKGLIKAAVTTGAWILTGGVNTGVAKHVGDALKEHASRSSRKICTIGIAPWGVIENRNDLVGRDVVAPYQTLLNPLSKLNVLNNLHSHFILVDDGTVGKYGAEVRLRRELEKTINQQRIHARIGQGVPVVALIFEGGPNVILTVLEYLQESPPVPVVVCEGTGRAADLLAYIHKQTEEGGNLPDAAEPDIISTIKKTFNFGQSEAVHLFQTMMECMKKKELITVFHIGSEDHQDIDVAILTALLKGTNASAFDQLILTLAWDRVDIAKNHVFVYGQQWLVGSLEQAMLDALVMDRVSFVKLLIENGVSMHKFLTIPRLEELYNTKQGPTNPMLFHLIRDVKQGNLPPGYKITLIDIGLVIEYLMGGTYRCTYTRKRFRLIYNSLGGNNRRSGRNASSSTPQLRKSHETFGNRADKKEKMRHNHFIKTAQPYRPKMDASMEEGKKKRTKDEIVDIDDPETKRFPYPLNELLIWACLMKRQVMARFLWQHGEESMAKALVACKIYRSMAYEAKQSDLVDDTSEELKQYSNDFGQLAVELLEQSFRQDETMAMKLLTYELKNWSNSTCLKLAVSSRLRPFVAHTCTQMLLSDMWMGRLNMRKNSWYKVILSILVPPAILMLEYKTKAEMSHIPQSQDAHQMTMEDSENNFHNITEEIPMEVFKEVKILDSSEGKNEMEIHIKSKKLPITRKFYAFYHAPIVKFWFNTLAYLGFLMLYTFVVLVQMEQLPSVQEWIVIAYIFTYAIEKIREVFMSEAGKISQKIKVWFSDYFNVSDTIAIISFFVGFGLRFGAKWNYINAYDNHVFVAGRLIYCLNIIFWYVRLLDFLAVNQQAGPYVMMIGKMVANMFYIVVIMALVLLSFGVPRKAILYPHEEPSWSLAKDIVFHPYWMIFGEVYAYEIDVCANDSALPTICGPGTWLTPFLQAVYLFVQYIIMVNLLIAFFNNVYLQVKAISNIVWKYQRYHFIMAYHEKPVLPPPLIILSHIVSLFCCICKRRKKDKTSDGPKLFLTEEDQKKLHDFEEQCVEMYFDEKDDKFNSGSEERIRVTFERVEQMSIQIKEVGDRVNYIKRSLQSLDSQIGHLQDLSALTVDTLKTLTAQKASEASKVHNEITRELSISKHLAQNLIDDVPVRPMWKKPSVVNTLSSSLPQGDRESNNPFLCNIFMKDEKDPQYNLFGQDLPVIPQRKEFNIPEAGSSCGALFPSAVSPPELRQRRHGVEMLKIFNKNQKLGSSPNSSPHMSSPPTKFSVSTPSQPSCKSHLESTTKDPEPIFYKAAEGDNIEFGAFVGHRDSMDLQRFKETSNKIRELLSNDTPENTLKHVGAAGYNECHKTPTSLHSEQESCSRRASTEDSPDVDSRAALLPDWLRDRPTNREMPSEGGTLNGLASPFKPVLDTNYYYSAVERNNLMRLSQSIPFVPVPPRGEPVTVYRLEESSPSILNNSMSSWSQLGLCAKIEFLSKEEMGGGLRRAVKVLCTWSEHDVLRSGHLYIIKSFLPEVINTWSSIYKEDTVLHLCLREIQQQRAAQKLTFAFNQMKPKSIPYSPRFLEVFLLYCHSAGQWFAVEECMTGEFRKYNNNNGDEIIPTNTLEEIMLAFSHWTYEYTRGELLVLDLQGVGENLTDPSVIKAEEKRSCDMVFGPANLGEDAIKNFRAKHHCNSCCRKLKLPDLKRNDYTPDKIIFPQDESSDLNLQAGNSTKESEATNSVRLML

Cc1c(Cc2ccc(Cl)c(Cl)c2)c(=O)oc2cc(O)ccc12
inactive: inhibition [4] | inhibition [12] | Activity [13] | inhibition [16] | inhibition [18] | inhibition [22] | inhibition [24] | inhibition [27] | inhibition [28] | inhibition [33] | inhibition [38] | inhibition [40]
> 20%: inhibition at 10 µM [14]
66%: Activity [3]
active: inhibition [1] | Activity [2] | inhibition [5] | Activity [6] | Activity [7] | inhibition [8] | inhibition [9] | inhibition [10] | inhibition [15] | inhibition [19] | inhibition [20] | inhibition [21] | inhibition [23] | inhibition [25] | inhibition [26] | inhibition [29] | inhibition [30] | inhibition [31] | Activity [32] | inhibition [34] | Activity [35] | inhibition [36] | inhibition [37] | inhibition [39]
Non-toxic: Activity [11]
20%: inhibition [17]
